Source: the supplement of paper PMC10307832

Key:
Test in all cases: relative viability (nuclei count vs DMSO), 5 days (fraction); higher = more cells survive
[1] = compound: COc1cc(Nc2ncc3c(n2)-c2ccc(Cl)cc2C(c2c(F)cccc2OC)=NC3)ccc1C(=O)O [Alisertib]
How it was run: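 After an overnight hold at 37 °C, lung cancer cell lines in 1536-well plates were pinned with five library-drug doses (not always all listed), each √10 from the next, on vehicle-anchored plates. The cells stayed 5 days without fresh medium, then a one-step fix, permeabilisation and Hoechst stain preceded 4× imaging and MetaXpress nuclear counts. A plate passed only with control CV under 25% and at least one doubling. Viability is the median, over plates, of treated-well nuclei relative to vehicle-well nuclei.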

[2] = compound: COc1cc(Nc2ncc3c(n2)-c2ccc(Cl)cc2C(c2c(F)cccc2OC)=NC3)ccc1C(=O)O [Alisertib] + N=C(N)NC(=N)NCCc1ccccc1 [Phenformin] (partner 250 µM)
How it was run: (§1)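 Lung cancer cell lines were seeded in 1536-well plates and dosed by pin tool the next day, with either a single drug or a fixed anchor-drug dose combined with five library-drug doses (not always all listed) spaced in √10 steps. Five days later, one step fixed the cells and stained their nuclei (final 0.05% Triton X-100, 1% formaldehyde, 1 ug/ml Hoechst), and nuclei were counted on 4× images. Relative viability is the nuclei count in treated wells divided by the count in vehicle wells, and each value is the median of duplicate plates.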

[3] = compound: COc1cc(Nc2ncc3c(n2)-c2ccc(Cl)cc2C(c2c(F)cccc2OC)=NC3)ccc1C(=O)O [Alisertib] + COc1cccc2cc(-c3nc([C@H]4CC[C@H](C(=O)O)CC4)n4ncnc(N)c34)[nH]c12 [OSI-027] (partner 0.5 µM)
How it was run: as §1

[4] = compound: COc1cc(Nc2ncc3c(n2)-c2ccc(Cl)cc2C(c2c(F)cccc2OC)=NC3)ccc1C(=O)O [Alisertib] + CC(=O)Nc1cccc(-n2c(=O)n(C3CC3)c(=O)c3c(Nc4ccc(I)cc4F)n(C)c(=O)c(C)c32)c1 [Trametinib] (partner 0.02 µM)
How it was run: as §1

Cell Line	relative viability ([1]; 0.005 µM)	relative viability ([1]; 0.01581 µM)	relative viability ([1]; 0.05 µM)	relative viability ([1]; 0.1581 µM)	relative viability ([1]; 0.5 µM)	relative viability ([2]; first compound 0.005 µM)	relative viability ([2]; first compound 0.01581 µM)	relative viability ([2]; first compound 0.05 µM)	relative viability ([2]; first compound 0.1581 µM)	relative viability ([2]; first compound 0.5 µM)	relative viability ([3]; first compound 0.005 µM)	relative viability ([3]; first compound 0.01581 µM)	relative viability ([3]; first compound 0.05 µM)	relative viability ([3]; first compound 0.1581 µM)	relative viability ([3]; first compound 0.5 µM)	relative viability ([4]; first compound 0.005 µM)	relative viability ([4]; first compound 0.01581 µM)	relative viability ([4]; first compound 0.05 µM)	relative viability ([4]; first compound 0.1581 µM)	relative viability ([4]; first compound 0.5 µM)
201T	0.985	0.964	0.966	0.466	0.386	0.38	0.435	0.441	0.238	0.256	0.712	0.762	0.632	0.249	0.126	0.732	0.707	0.707	0.679	0.278
A549	0.877	0.633	0.331	0.0691	0.0535	0.152	0.0871	0.0611	0.0311	0.0352	–	–	–	–	–	–	–	–	–	–
A-427	0.798	0.681	0.333	0.231	0.19	0.298	0.187	0.117	0.132	0.121	0.406	0.291	0.13	0.162	0.133	0.596	0.57	0.244	0.241	0.262
ABC-1	0.794	0.845	0.787	0.286	0.293	0.269	0.225	0.185	0.218	0.195	0.42	0.375	0.339	0.195	0.185	–	–	–	–	–
BEN	0.88	0.812	0.374	0.234	0.209	0.283	0.299	0.233	0.207	0.184	0.296	0.265	0.24	0.217	0.158	1.02	0.976	0.435	0.286	0.409
CAL-12T	0.827	0.636	0.229	0.193	0.179	0.434	0.253	0.15	0.142	0.169	0.488	0.277	0.137	0.165	0.118	0.321	0.261	0.155	0.154	0.227
COR-L23	1.02	0.846	0.484	0.203	0.123	0.351	0.388	0.243	0.137	0.109	0.739	0.661	0.517	0.133	0.13	0.609	0.427	0.221	0.133	0.125
COR-L 105	0.863	0.952	0.765	0.305	0.303	0.454	0.493	0.335	0.234	0.246	0.59	0.66	0.546	0.248	0.267	0.4	0.407	0.369	0.325	0.281
Calu-6	0.863	0.669	0.319	0.196	0.186	–	–	–	–	–	–	–	–	–	–	–	–	–	–	–
ChaGo-K-1	0.84	0.855	0.348	0.245	0.223	0.426	0.382	0.418	0.151	0.139	0.423	0.537	0.349	0.138	0.15	0.772	0.795	0.213	0.191	0.159
EKVX	0.907	0.85	0.43	0.231	0.186	0.209	0.209	0.135	0.129	0.131	0.654	0.631	0.251	0.158	0.136	0.319	0.37	0.18	0.16	0.155
EMC-BAC-2	0.681	0.625	0.455	0.299	0.259	0.389	0.343	0.27	0.245	0.197	0.334	0.29	0.231	0.217	0.178	0.839	0.681	0.439	0.347	0.304
EPLC-272H	0.834	0.758	0.646	0.127	0.139	0.251	0.238	0.284	0.101	0.12	0.275	0.282	0.256	0.131	0.124	0.258	0.278	0.275	0.179	0.158
H3255	0.94	0.859	0.586	0.251	0.205	0.329	0.338	0.313	0.299	0.294	0.589	0.575	0.444	0.269	0.271	0.662	0.637	0.441	0.309	0.295
HARA	0.897	0.94	0.656	0.24	0.185	0.398	0.469	0.358	0.187	0.133	0.409	0.423	0.369	0.113	0.0564	0.722	0.769	0.348	0.12	0.207
HCC-15	0.862	0.723	0.513	0.138	0.138	0.401	0.313	0.178	0.108	0.1	0.578	0.504	0.227	0.118	0.12	0.356	0.286	0.175	0.122	0.113
HCC-44	0.933	0.928	0.816	0.275	0.212	0.146	0.193	0.134	0.0875	0.0665	0.465	0.313	0.368	0.166	0.186	0.963	0.931	0.509	0.4	0.32
